Test results published in patent publication US11690828B2, “Treatment of CNS diseases with sGC stimulators” (Cyclerion Therapeutics, Inc., priority 2016, dated 2023).

What was measured:
sGC = assay: cGMP neuronal cell-based assay; conditions: rat primary hippocampal neurons; 30 μM DETA-NO; 50% of high control (10 μM Compound Y); read-out: sGC-neuron Abs EC50
Procedure: Rat primary neurons were isolated from fetuses of 18-day pregnant Sprague-Dawley females. The fetuses were collected in Hanks' balanced salt solution (HBSS) and brains were rapidly removed. The cerebral hippocampi were isolated and mechanically fragmented. Further tissue digestion was performed with 0.25% (wt/vol) trypsin solution in HBSS without Ca2+ and Mg2+ for 15 min at 37° C. After trypsination, cells were washed and resuspended in neurobasal medium supplemented with 0.5 mM L-glutamine, 12.5 uM glutamic acid, 2% B-27 and 100 U/mL penicillin, and 100 μg/mL streptomycin. Cells were plated at a density of 4×10^4 cells/well in a poly-D-lysine coated 384-well flat clear-bottom plate (Corning Cat No 354662). Cells were incubated 6-7 days at 37° C. in a humidified chamber with 5% CO2. Media was removed and cells were washed 1× with HBSS containing Ca2+ and Mg2+, and replaced with 40 uL HBSS containing 0.5 mM IBMX, and incubated for 15 minutes at 37° C. 10 uL of a 5× stock of test compounds with diethylenetriamine NONOate (DETA-NO) was added. Final concentration of DETA-NO was 30 μM. Cells were incubated for 20 min at 37° C. Medium was removed, 50 uL of ice-cold 10% acetic acid was added, and incubated for 60 minutes at 4° C. Following centrifugation at 4° C. for 5 minutes at 1000×g to pellet cell debris, the supernatant was aspirated to a clean plate and the samples were analyzed for cGMP content. cGMP concentrations were determined from each sample using LC-MS/MS.
Data were normalized to a high control using the following equation: 100*(Sample−Low Control)/(High Control−Low Control), where the low control is the average of 15 samples treated with 1% DMSO, and the high control is the average of 15 samples treated with 10 μM of the known sGC stimulator Compound Y (depicted in Example 2). Data were fit using a 4-parameter fit (log(agonist) vs. response—variable slope) using GraphPad Prism Software v.5. n=2 for all compounds. […]

[1] = Rat cerebrospinal fluid (CSF) pharmacokinetic properties; type: in vivo; conditions: male, Sprague-Dawley; for concentration at 1 h: CSF, PO 10 mg/kg in PEG400, 1 h post-dosing, read-out: CSF Conc (nM @ 1 h); for Kp uu at 1 h: PO 10 mg/kg, unbound CSF / unbound plasma
Procedure: PK in rats was determined following oral dosing. For the oral (PO) experiments, a group of 6 male Sprague-Dawley rats with an indwelling catheter placed in the cisterna magna were used. The PO group was dosed with 3 or 10 mg/kg of a compound formulated as a solution in PEG400. PO doses were administered by oral gavage and delivered to the stomach using a syringe and gavage tube. Following oral dosage administration, the gavage tube was flushed with approximately 0.5 mL of water to ensure complete delivery of the full dose.
Plasma and CSF samples were collected as follows: samples of CSF and blood were collected at 1 hour and 2 hours post-dosing. CSF samples (0.05 mL) were collected through the intracisternal catheter. Blood samples (0.25 mL) were collected through retro-orbital sampling. These samples were kept on ice until processed for plasma. Blood samples were centrifuged at 3200 rpm for 5 minutes at approximately 5° C. within 1 hour of collection. Plasma was directly transferred to a 96-well plate tube (0.125 mL). Plug caps were placed on the tubes and the tubes frozen at approximately −70° C. and stored until analysis.
Plasma was collected and analyzed for the presence of compound.
The compound in question and the internal standard were extracted from plasma and CSF by precipitation. Samples were analyzed using liquid chromatography (LC) with tandem mass spectrometric detection (MS/MS) using electrospray ionization. The standard curve range was from 1 to 1000 ng/mL.
Kp,uu is defined as the concentration ratio of unbound drug in CSF to unbound drug in plasma. Unbound drug in plasma (or free plasma concentration) is calculated by multiplying the total plasma concentration by the unbound fraction as determined by plasma protein binding. The CSF concentration is then divided by the free plasma concentration to determine the Kp,uu. (See e.g., Di et al., J. Med. Chem., 56, 2-12 (2013)).

[2] = system: R6/2 mice hippocampal slices; assay: Synaptic transmission and plasticity (LTP) in R6/2 mice hippocampal slices; type: cell-based, mouse
Procedure: Preparation of acute mice hippocampal slices. Experiments were carried out with 11 to 12 week-old R6/2 and WT mice provided by the Jackson Laboratory (USA). Hippocampal slices (350 μm thickness) were cut with a Macllwain tissue chopper in an ice-cold oxygenated sucrose solution (Saccharose 250, Glucose 11, NaHCO3 26, KCl 2, NaH2PO4 1.2, MgCl2 7, and CaCl2 0.5 in mM). The slices were incubated 1 hour at room temperature in ACSF of the following composition: Glucose 11, NaHCO3 25, NaCl 126, KCl 3.5, NaH2PO4 1.2, MgCl2 1.3, and CaCl2 2 in mM. Then, the slices were let to recover for at least 1 h.
Slice perfusion and temperature control. During the experiments, the slices were continuously perfused with the ACSF (bubbled with 95% O2-5% CO2) at the rate of 3 mL/min with a peristaltic pump (MEA chamber volume: ˜1 mL). Complete solution exchange in the MEA chamber was achieved 20 s after the switch of solutions. The perfusion liquid was continuously pre-heated at 37° C. just before reaching the MEA chamber with a heated-perfusion cannula (PH01, MultiChannel Systems, Reutlingen, Germany). The temperature of the MEA chamber was maintained at 37±0.1° C. with a heating element located in the MEA amplifier headstage.
Input/Output (I/O) curve: from 100 to 800 μA, by 100 μA steps. The stimulus intensity was then set to a fixed value of 250 μA for the short- and long-term synaptic plasticity measurements.
Short-term plasticity properties: two pulses with a decreasing inter-stimuli interval (e.g. 300 ms, 200 ms, 100 ms, 50 ms, 25 ms) were applied. Compound application: fEPSP were recorded for 10 minutes in control conditions (to verify the baseline steadiness) followed by a 15-minute exposure to the compound (or 25 minutes in the presence of vehicle only for control slices). A second I/O protocol and paired-pulse protocol were applied, as described previously, in the continuous presence of the compound.
Long-Term Potentiation (LTP): Following a 10-minute control period (in the presence of the compound or vehicle for control slices), LTP was induced by a 10×TBS. Potentiation of synaptic transmission was then monitored for an additional 60-minute period (in the continuous presence of the compound or vehicle for control slices).

[3] = 855 nM, R6/2 hippocampal slices

EC50 (sGC) [nM] | concentration at 1 h [1] [nM] | Kp uu at 1 h [1] | SMILES | Potentiation in R6/2 slices compared to R6/2 control slices ([2]; 855 nM) | fEPSP amplitude (basal synaptic transmission) ([2]; 855 nM for 15 minutes, R6/2 hippocampal slices) | I/O characteristics [2, 3] | Paired-pulse properties [2, 3] | LTP: fEPSP increase at endpoint after HFS ([2]; 855 nM, R6/2 hippocampal slices, WT control 36±3%, R6/2 control 15±2%) [%]
≤ 100 | 446 | 3.26 | FC(F)(F)c1n[nH]c(-c2nc(Cc3cncnc3)c3ccccn23)n1 [Compound I-5] | significantly increased | did not modify | significantly higher | significantly increased | 40±6
≤ 100 | 62.9 | 3.16 | Fc1ccccc1Cn1nc(-c2nc(C(F)(F)F)n[nH]2)c2cccnc21 [Compound I-2] | – | – | – | – | –
